Molecules are shown by their SMILES.

Consider one molecule from US11931327B2, “Drug for retinal degenerative disease associated with photoreceptor degeneration” (Daiichi Sankyo Company, Limited, priority 2017, dated 2024).

Assay [1] has as its system pathological zebrafish 2: Tg (rho: NTR-NanoLuc, my17: DsRed2) crossed with Tg (rho: hRHO (Q344X), omp: EGFP). Description: Rod-cell regeneration effect in retinitis pigmentosa model, quantitative evaluation by NanoLuc luminescence. The conditions noted are these: N=8 per concentration; Dunnett's test; FIG. 7. The assay is classed as in vivo. How it is done: Pathological model zebrafish, in which rod-cell regeneration can be quantitatively evaluated, were newly prepared using zebrafish known as a retinitis pigmentosa model. The effect of compounds was quantitatively verified in accordance with the following procedure.
1) Quantitative evaluation of rod-cell regeneration was carried out by zebrafish (pathological zebrafish 2) obtained by crossing transgenic Tg (rho: NTR-NanoLuc, my17: DsRed2) and Tg (rho: hRHO (Q344X), omp: EGFP).
Fertilized eggs were collected.
A screening test was repeated 8 times (N=8) at each concentration.
2) After shaking for one hour using BIO-Mixer, the luminescence from NanoLuc (registered trademark) was measured by use of EnVision.

Assay [2] deals with transgenic zebrafish Tg (rho: NTR-NanoLuc, my17: DsRed2). Nature of the assay: animal or person. An excerpt: First, the present inventors constructed a model for evaluating induction of rod cell regeneration. […] Transgenic zebrafish Tg (rho: NTR-NanoLuc, my17: DsRed2), in which a fluorescent protein, DsRed2, which is cardiac-tissue specifically expressed by cardiomyocyte-specific my17 promoter, can be simply detected by using dsRed2 as a marker under a fluorescence stereomicroscope. In the transgenic zebrafish, in addition to cardiac tissue specific expression of DsRed2, a reductase, i.e., nitroreductase (NTR), and a photoprotein, i.e., NanoLuc fusion protein (NTR-NanoLuc), are expressed by a rod-cell specific rho promoter, in a rod-cell specific manner. […] However, if, a prodrug, metronidazole, is added, non-toxic metronidazole is converted to a toxic radical by NTR. […] After rod cells are ablated by treatment with metronidazole, the transgenic zebrafish were washed with rearing water to remove the toxic radical. […] In the transgenic zebrafish, rod cells can be quantitatively determined by measuring the amount of luminescence derived from rod-cell-specific NanoLuc expression. After the rod cells are ablated, the transgenic zebrafish are exposed to a test compound. The activity of the test compound to induce rod-cell regeneration can be quantitatively evaluated by measuring the amount of luminescence derived from NanoLuc and specific to rod cells.
1) On the day before collection of eggs, a pair of male and female zebrafish, i.e., a transgenic fish Tg (rho: NTR-NanoLuc, my17: DsRed2) and a wild type, were placed in a tank for mating and isolated by a divider.
2) The next morning (8:00-11:00), the divider was removed to allow them to mate with each other. Fertilized eggs were collected. In the evening (16:00-18:00) of the same day, only normally developed fertilized eggs were screened and raised in a plate for growth.
3) Day 3 after fertilization, juvenile fish were transferred to rearing water, which contained 10 mM metronidazole (Sigma-Aldrich, Japan) and 1% DMSO (Wako Pure Chemical Industries Ltd.), (prepared by dissolving 60 mg of instant ocean (Napco Limited (Japan)) in 1 L of distilled water), and raised in dark conditions for 24 hours. In this manner, ablation was specifically applied to the rod cells of the juvenile fish. In contrast, non-ablated juvenile fish, which were to be used as a control, were transferred to a tank containing rearing water, which contained a 1% DMSO solution, and raised.
5) Ablated juvenile fish of 4 days after fertilization were washed well with Egg water and dispensed in wells of the assay plate containing a compound together with 100 μL of Egg water, such that 2 juvenile fish individuals were present per well.
6) After the juvenile fish were raised for 2 days, […] of Egg water was removed and ethyl 3-aminobenzoate methanesulfonate (Sigma-Aldrich Japan; 0.4 mg/mL, 10 μL) was added to euthanize the fish.
7) Nano-Glo (registered trademark) Luciferase assay Substrate (Promega Corporation) was added to Nano-Glo (registered trademark) Luciferase assay buffer (Promega Corporation) in a ratio of 1:50 and 100 μL of the resultant solution was added to each of the wells.
8) Shaking was carried out by use of BIO-Mixer (Biotech Japan Co., Ltd.) for one hour and luminescence of NanoLuc (registered trademark) was measured by use of EnVision (PerkinElmer Co., Ltd., Japan).
Individual concentration groups were compared to the DMSO control group by the Dunnett's test.

Assay [3] concerns Pathological zebrafish 1: Tg (rho: EGFP) crossed with Tg (rho: hRHO (Q344X), omp: EGFP). Nature of the assay: Rod-cell regeneration effect in retinitis pigmentosa model, EGFP observed by confocal laser microscope. The assay is classed as in vivo. The conditions noted are these: 1 μM; fish raised 2 days with compound; FIG. 6. The protocol: Pathological model fish, in which rod-cell regeneration can be observed, were prepared using zebrafish known as a retinitis pigmentosa model. The effect of a compound was confirmed in accordance with the following procedure. As the compound to be evaluated, TTNPB (Sigma-Aldrich, Cat. No. T3757-10MG), was used.
1) To prepare a pathological model, in which rod-cell regeneration can be observed, zebrafish Tg (rho: EGFP) (Hamaoka T1, Takechi M, Chinen A et al., Visualization of rod photoreceptor development using GFP-transgenic zebrafish. Genesis. 2002; 34 (3): 215-220.; used as a reporter fish of rod cells) were crossed with zebrafish Tg (rho: hRHO (Q344X), omp: EGFP), which is a name under another nomenclature system of a retinitis pigmentosa model, i.e., zebrafish RH1: hRhodopsin (Q344X) (Nakao T, Tsujikawa M, Notomi S, Ikeda Y, Nishida K., “The role of mislocalized phototransduction in photoreceptor cell death of retinitis pigmentosa.”, PLoS One., 2012; 7 (4): e32472). The zebrafish obtained were specified as zebrafish (Pathological zebrafish 1). Control zebrafish (non-pathological zebrafish) were obtained by crossing zebrafish Tg (rho: EGFP) with wild-type zebrafish. […]
Luminescence of EGFP specifically expressed in rod cells was observed by a confocal laser microscope in the following procedure. […]

For `C/C(=C\c1ccc(C(=O)O)cc1)c1ccc2c(c1)C(C)(C)CCC2(C)C` [TTNPB, 4-[(E)-2-(5,6,7,8-tetrahydro-5,5,8,8-tetramethyl-2-naphthalenyl)-1-propenyl]benzoic acid], the “regeneration of rod cells in the retinitis pigmentosa model (luminescence, words)” value in assay [1] is listed as “statistically significant regeneration of rod cells in a dose dependent manner”. The “rod-cell regeneration induction activity compared to the DMSO control” value in assay [2] (Examples 3 and 4, TTNPB 0.3, 1, 3, 10 and 30 μM, N=4, RA and BMS493 N=8, Dunnett's test) is on record as “statistically significant rod-cell regeneration induction activity at all concentrations”. The “concentration at which the medicinal effect already reached saturation” value in assay [2] (minimum concentration tested, range 0.3-30 μM) was no more than 0.3 µM. Further, the “Activation (%)” value in assay [2] (screening, 2.5 μM, relative to average of DMSO control = 100) was no less than 150%. Besides, the “number of rod cells compared to pathological fish untreated with drug” value in assay [3] is “Recovery in the number of rod cells was confirmed”.
